Holding throughout (assay): growth of human tumour cells (NCI), 48 h
The subject of test [1] is HCT-116.
Test [2] concerns NCI-H522.
Test [3] deals with OVCAR-3.
Test [4] has as its system HCT-15.
For test [5], the system named is UO-31.
Test [6] has as its system Malme-3M.
The test system of test [7] is CAKI-1.
Test [8] has as its system U-251.
Test [9] concerns COLO 205.
In test [10] the test system is K562.
For test [11], the system named is RXF 393.
In test [12] the test system is HCC 2998.
The test system of test [13] is A498.
Test [14] relates to CCRF-CEM.
The subject of test [15] is RPMI-8226.
Test [16] deals with NCI-H226.
Test [17] has as its system SK-MEL-5.

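The compound was tested at five concentrations on cells cultured in 96-well plates, with a 48-hour exposure period. GI50 = concentration required for 50% inhibition of growth.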 Calls of active or inactive are those of the source. Rule as the data show it: active = GI50 up to about 1.1 µM and inactive = higher. A value given as a limit tells only on which side of the number the result lay.

Consider 13 compounds from ChEMBL document CHEMBL1201862, “PubChem BioAssay data set” (2004).

Regarding `CCCCCN(CCCCC)C(=O)[C@@H](CCC(=O)OCc1ccccc1)NC(=O)c1cc2ccccc2[nH]1`, the GI50 was > 100 µM (inactive) in test [1]; > 100 µM (inactive) in test [2]; > 100 µM (inactive) in test [3]; greater than 100 µM in [4]; > 100 µM (inactive) in test [5]; > 100 µM (inactive) in test [6]. For the same compound, the GI50 in test [7] was 8.81 µM (inactive); in test [8], 6.22 µM (inactive); in test [9] it was 6.18 µM (inactive); in test [10], 5.55 µM (inactive); in test [11], > 100 µM (inactive); in test [12], > 100 µM (inactive). Besides, the GI50 in test [13] and in test [14] was > 100 µM (inactive) each time.

In the case of `CC1SC2=NC3=C(c4ccccc4C3=O)C(c3ccc(Br)cc3)N2C1=O` (stereo unspecified), the GI50 in test [2] was 19.3 µM (inactive); in test [3], 37.2 µM (inactive); in test [15], 31.6 µM (inactive); in test [4], 52.2 µM; in test [16], 23.2 µM (inactive); in test [5], 8.47 µM (inactive). In addition, the GI50 in test [6] was 44.3 µM (inactive); in [7], 80.9 µM (inactive); in test [8] it was 35.5 µM (inactive); in test [9], 90.2 µM (inactive); in [17], 41.2 µM (inactive); in [10], 44.6 µM (inactive). The GI50 in [12] was 60.8 µM (inactive); in test [13] it was > 100 µM (inactive); in test [14], 33.3 µM (inactive).

On to `CC1(Br)CC2OC3(Br)C=CC(C)(O)C2(CC1=O)C3(C)C` (stereo unspecified), for which the GI50 in test [1] is > 92 µM (inactive); in test [2], 53.3 µM (inactive); in [3], > 100 µM (inactive); in test [15] it was 36.8 µM (inactive); in test [4], greater than 100 µM; in [16], > 100 µM (inactive). Moreover, the GI50 in test [5] was > 83.9 µM (inactive); in [6], > 100 µM (inactive); in [7] it was > 100 µM (inactive); in test [8] it was > 100 µM (inactive); in [9], > 100 µM (inactive); in [17], > 100 µM (inactive). Further, the GI50 in test [10] is 19.1 µM (inactive); in test [12], > 100 µM (inactive); in test [13], > 100 µM (inactive); in test [14] it was 16 µM (inactive).

With `O=C(Cc1ccccc1)NN1C(=O)C(Cl)C1c1cc(Br)cc(Br)c1O` (stereo unspecified), the GI50 in test [1] is 3.21 µM (inactive); in [2], 3.8 µM (inactive); in [3] it was 2.71 µM (inactive); in test [15], 6.81 µM (inactive); in [4], 6.79 µM; in [16], 14.7 µM (inactive). The GI50 is 4.11 µM (inactive) in test [5]; 17.7 µM (inactive) in [6]; 25.8 µM (inactive) in test [7]; 13 µM (inactive) in test [8]; 21.3 µM (inactive) in [9]; 13.6 µM (inactive) in test [17]. Moreover, the GI50 in [10] was 6.44 µM (inactive); in test [11], 17.7 µM (inactive); in test [12], 13.8 µM (inactive); in test [14], 3.05 µM (inactive).

Regarding `C/C(CC(=O)Nc1cccc(Cl)c1C)=N\NC(=O)c1ccncc1`, the GI50 was > 100 µM (inactive) in test [1]; 21.4 µM (inactive) in test [2]; > 100 µM (inactive) in [3]; > 100 µM (inactive) in test [15]; > 100 µM (inactive) in test [16]; > 100 µM (inactive) in test [5]. Further, the GI50 is > 100 µM (inactive) in [6]; > 100 µM (inactive) in test [8]; > 100 µM (inactive) in [9]; > 100 µM (inactive) in test [17]; > 100 µM (inactive) in test [10]; 29.1 µM (inactive) in [11]. Further, the GI50 in test [12] and in [14] was > 100 µM (inactive) each time.

Regarding `CSc1nc(-c2ccccc2)c2c(n1)-c1ccccc1CC2`, the GI50 in test [1], in test [2], in test [3], in test [15], in test [16] and in test [5] was > 100 µM (inactive) each time. Further, the GI50 in test [6], in test [7], in test [8], in test [9], in test [17] and in [10] was > 100 µM (inactive) each time. For the same compound, the GI50 in [11] was 34.4 µM (inactive); in test [13], > 100 µM (inactive); in test [14], > 100 µM (inactive).

As for `O=Cc1ccc2c(c1-c1c(C=O)ccc3c1OCO3)OCO2`, the GI50 in test [1] was > 100 µM (inactive); in [2] it was > 100 µM (inactive); in test [3] it was > 100 µM (inactive); in [15] it was 96.6 µM (inactive); in test [4], greater than 100 µM; in [16], > 100 µM (inactive). Also, the GI50 in test [5], in test [6], in test [7], in [8], in [9] and in test [17] was > 100 µM (inactive) each time. Besides, the GI50 in [10] is > 100 µM (inactive); in [12], > 100 µM (inactive); in [13], > 100 µM (inactive); in test [14], 85.1 µM (inactive).

With `COc1ccc2c(c1)CCc1c(-c3n[nH]c4c3CCc3cc(OC)ccc3-4)n[nH]c1-2`, the GI50 in test [1] was 34.1 µM (inactive); in test [2] it was 20.2 µM (inactive); in test [4], 35.1 µM; in test [16], 28.8 µM (inactive); in [5] it was 40.5 µM (inactive); in [6] it was 37.9 µM (inactive). Further, the GI50 in test [7] was 24.4 µM (inactive); in test [8] it was 49.1 µM (inactive); in test [9], 50.2 µM (inactive); in test [17] it was 30.8 µM (inactive); in test [10], 8.89 µM (inactive); in test [12], > 100 µM (inactive). Moreover, the figures for the GI50 in test [13] and in test [14] were 27.6 µM (inactive) and 26.1 µM (inactive), respectively.

Consider `C#CCC(N)(CO)C(=O)O` (stereo unspecified), for which the GI50 in test [1] is > 100 µM (inactive); in test [2] it was > 100 µM (inactive); in [3], > 100 µM (inactive); in test [15], > 100 µM (inactive); in test [4], greater than 100 µM; in test [16], > 100 µM (inactive). For the same compound, the GI50 in test [5], in test [6], in test [7], in test [8], in [9] and in [17] was > 100 µM (inactive) each time. Also, the GI50 was > 100 µM (inactive) in test [10], > 100 µM (inactive) in test [12], > 100 µM (inactive) in test [13] and > 10 µM (inactive) in test [14].

Turning to `COCC(OC)C(CC=C(C#N)C#N)OC` (stereo unspecified), the GI50 in [1] was > 100 µM (inactive); in test [2], > 100 µM (inactive); in test [3] it was > 100 µM (inactive); in test [15], > 100 µM (inactive); in [4] it was greater than 100 µM; in test [5], > 100 µM (inactive). Also, the GI50 in [6], in test [7], in [8], in test [9], in test [17] and in test [10] was > 100 µM (inactive) in each case. The GI50 in test [12], in test [13] and in [14] was > 100 µM (inactive) throughout.

On to `CC(C)(O)[C@@H]1CCC(C)([C@H]2[C@@H](O)CC3(C)C4CC(OC5OC(CO)C(O)C(O)C5O)C5C(C)(C)[C@@H](OC6OCC(O)C(O)C6O)CC[C@@]56C[C@@]46CC[C@]23C)O1` (stereo partly specified), for which the GI50 was > 100 µM (inactive) in test [1]; > 100 µM (inactive) in [2]; > 100 µM (inactive) in test [3]; > 100 µM (inactive) in test [15]; greater than 100 µM in [4]; > 100 µM (inactive) in test [16]. Moreover, the GI50 in test [5], in test [6], in [8], in test [9], in [17] and in [10] was > 100 µM (inactive) throughout. Also, the GI50 in test [11], in test [12] and in [14] was > 100 µM (inactive) in each case.

Turning to `COc1cc2c(c(OC)c1OC)-c1ccc(SC)c(=O)cc1[C@@H](NC(=O)c1cccc([N+](=O)[O-])c1)CC2`, the GI50 is 0.0174 µM (active) in test [1]; < 0.01 µM (active) in test [2]; 0.0191 µM (active) in test [3]; 0.0208 µM (active) in test [15]; < 0.01 µM (active) in [16]; 0.0516 µM (active) in test [5]. Also, the GI50 in test [6] was 0.0161 µM (active); in test [7], 0.049 µM (active); in test [8] it was 0.0221 µM (active); in [9], 0.0168 µM (active); in test [17], 0.0179 µM (active); in test [10], < 0.01 µM (active). Further, the GI50 in test [12] was 0.0207 µM (active); in [13], 0.0198 µM (active); in [14] it was 0.0301 µM (active).

In the case of `CCN(CC)CCNc1ccc2nnn3c4ccc(OC)cc4c(=O)c1c23`, the GI50 in test [1] is 2.16 µM (inactive); in test [2], 6.7 µM (inactive); in test [3], 13.5 µM (inactive); in [15], 2.82 µM (inactive); in [4] it was 6.17 µM; in test [16] it was 6.3 µM (inactive). Besides, the GI50 in test [5] is 10 µM (inactive); in test [6] it was 10.4 µM (inactive); in test [7] it was 12.2 µM (inactive); in [8], 10.4 µM (inactive); in test [9], 6.5 µM (inactive); in test [17], 12.5 µM (inactive). Besides, the results for the GI50 in test [10], in test [13] and in test [14] were 3.78 µM (inactive), 13.3 µM (inactive) and 3.52 µM (inactive), respectively.
